# Assay results as given in US20220409526A1 (Retina Foundation Of The Southwest, priority 2019, published 2022).
# Tests used:
# ARPE-19 cells [1] = assay: GSH assay (Promega GSH/GSSG-Glo); format: cell-based, human; conditions: 1 mM for 24 hours
# Description: The production of cellular GSH levels upon exposure to drugs were measured using the GSH assay kit. NACA and GSH-EE were used as controls in this assay. ARPE-19 cells were grown in white 96 well plates. The cells were exposed to 1 mM solutions of NAC, NACME, NACEE, NACPE, NACBE, NACA and glutathione ethyl ester (GSH-EE) for 24 hours. The solutions were removed and washed with PBS once. Afterwards, GSH assay was carried out according to manufacturer recommended protocol (Promega GSH/GSSG-Glo™) and luminescence readings were obtained with a luminometer, which a higher luminescence intensity indicates a higher GSH concentration.
# in vitro = format: cell-based, human; conditions: human
# Description: (§1) ARPE-19 cells were grown in DMEM:F-12 supplemented with 10% fetal bovine serum (FBS). For all experiments these cells were split and grown in 6-well plates using MEM-Nic supplemented with 1% FBS according to a previously published procedure.^33 Cells used for all the experiments were between passages 25-30. For all experiments, the 96 well plates and 8-well slides were coated with 0.039 mg/mL collagen I at 6 μg/cm^2. The cells were seeded at a cell density of 70,000 cells/well and 150,000 cells/well using MEM-Nic media for 96 well plates and 8 well slides, respectively. Once the cells are confluent, media was replaced with MEM a, GlutaMAX™, supplemented with 1% FBS for 24 hours before carrying out assay protocols. Exposure to NAC alkyl-ester prodrugs were carried out in MEM a, GlutaMAX™, supplemented with 1% FBS and treatment with HQ was carried out in serum free DMEM:F-12.
# (§2) ARPE-19 Cell viability assays were carried out using XTT/PMS reagent mixtures according to standard procedures known in the art (see Celis, J. E.; Carter, N., Cell Biology: A Laboratory Handbook. Elsevier Science: 2005). Corresponding absorbance readings were obtained using a plate reader at 450 and 660 nm.
# (§3) A dose dependent study was first carried out for ARPE-19 cells using HQ concentrations varying from 100-1000 μM. Cells were then incubated at 37° C., 5% CO2 for 16 hours. HQ doses of less than 400 μM were non-lethal. Using 500 μM HQ for 16 hours gave a cell viability of ˜60%.
# (§4) To evaluate the ability of the NAC alkyl-ester analogues to provide cellular protection against oxidative stress, cells were treated with 0.05 mM of NAC, NACME, NACEE, NACPE and NACBE for 2, 24 and 48 hours. Treated cells were then exposed to 500 μM HQ for 16 hours. HQ solutions were removed and replaced with DMEM:F-12 supplemented with 1% FBS, and followed by the addition of XTT (2,3-bis-(2-methoxy-4-nitro-5-sulfophenyl)-2H-tetrazolium-5-carboxanilide) and PMS (phenazine methyl sulfate).
# (§5) To compare the effectiveness of NACBE and NAC in protecting against oxidative damage, another dose dependent study was carried out by varying the pretreatment concentration from 0.001 mM to 1.0 mM. […] Whereas for NAC, to reach the same cell viability, 0.5 mM concentration was needed (10× times that of NACBE).
# ARPE-19 cells [2] = assay: in vitro; format: cell-based, human
# Description: as §1, §2, §3, §4, §5
# ARPE-19 cells [3] = assay: JC-1 assay (mitochondrial membrane potential); format: cell-based, human; conditions: 50 μM HQ for 4 hours, compared to the control
# Description: JC-1 assays measuring the change in mitochondrial membrane potential were carried out to evaluate the protection of the NAC alkyl-ester analogues towards mitochondrial damage.
# Typically, JC-1 dye has an inherent green fluorescence at 530 nm. Upon reaching the cell, due to the structural properties of the dye, it will accumulate in the mitochondria making aggregates known as J-aggregates. These J-aggregates consists of a red shifted fluorescence (590 nm). Damaged or unhealthy mitochondria, due to their depolarized membrane potential (compared to healthy ones), will have lesser amounts of aggregates and thus will have low intensity of red emission. Cells with healthy mitochondria will have a more prominent red fluorescence than that in cells with damaged/unhealthy mitochondria due to the ability in forming J-aggregates.
# ARPE-19 cells were grown in black, clear bottom 96 well plates. […] With increasing time and dose of HQ, a drop in 590 nm/530 nm fluorescence is seen due to the depolarization of the mitochondria.
# Next, to assess the effect of NAC alkyl-ester analogues on oxidative damage in mitochondria (FIG. 12B), ARPE-19 cells were pretreated with 1 mM NAC, NAC alkyl-ester analogues, NACA, GSH-EE and 1 μM MitoQ for 1 and 24 hours. […] The JC-1 solution was removed and washed once with PBS and fluorescence measurements were obtained in PBS at 485 nm excitation and emission at 535 nm and 590 nm. […]
# ARPE-19 cells [4] = assay: CellTiter-Glo assay (ATP); format: cell-based, human
# Description: ARPE-19 cells were grown in white 96 well plates. The cells were first exposed to 500 μM of HQ for 3, 6 and 8 hours and the amount of ATP produced was measured using the CellTiter-Glo assay kit to obtain a time dependent response (FIG. 15). […] Due to the mitochondrial damage caused by HQ, the production of ATP was decreased.
# [5] = test system: mitochondrial DNA of ARPE-19 cells; assay: DNA fragmentation assay (long-extension PCR of mitochondrial DNA); format: cell-based, human
# Description: Mitochondrial DNA damage has been linked to pathogenic diseases, including AMD. To determine if pretreatment of RPE cells with NAC alkyl-ester analogues could protect mitochondrial DNA against oxidative damage, a long-extension PCR based assay was used to measure amplification of a large stretch of mitochondrial DNA. The mitochondrial DNA damage assay was performed according to protocols known to those in the art (see Santos, J. H.; Mandavilli, B. S.; Van Houten, B., Measuring Oxidative mtDNA Damage and Repair Using Quantitative PCR. In Mitochondrial DNA: Methods and Protocols, Copeland, W. C., Ed. Humana Press: Totowa, N.J., 2002; pp 159-176). Briefly, ARPE-19 cells were grown to confluency in 6-well plates. The cells were treated with NAC alkyl-ester analogues for 24 hours, washed and then treated with 500 uM HQ for an additional 24 hours. DNA was isolated from the treated cells with a QIAamp DNA mini kit (Qiagen). The DNA samples were diluted to 3 ng/μl for use in PCR reactions. PCR products were quantified using the Quant-iT Picogreen dsDNA Assay kit (Invitrogen). The relative amplification of the large band was normalized to untreated cells. The amplification of the small mitochondrial band was used to normalize the data obtained from the large band to account for mitochondrial DNA copy number.
# ARPE-19 cells [6] = assay: ZO-1 staining of cellular junctions; format: cell-based, human
# Description: ARPE-19 cells were grown on an 8-well slide until confluent. The cells were exposed to 1 mM NAC and NACBE for 24 hours, followed by treatment with 500 μM of HQ for 2 hours. The cells were washed with 3 cycles of PBS, and then fixed with 4% Paraformaldehyde at 4° C. for 30 mins. After fixation the cells were blocked in PBST (0.2% Triton X-100)+1% BSA for 60 mins. Primary antibody (rabbit anti-Zo-1, Invitrogen) was diluted 1/100 in PBST+1% BSA and added overnight at […]. Cells were washed ×3 with PBS and secondary antibody (Donkey anti-Rabbit AF-555, Abcam) was added for 4 hours at RT. Cells were washed ×3 with PBS and mounted with Prolong Diamond Mountant with DAPI (Invitrogen).
# ARPE-19 cells [7] = assay: HPLC analysis of cellular uptake and conversion to NAC; format: in vitro ADME, human; conditions: 1 mM for 1 hour in HBSS
# Description: ARPE-19 cells were seeded onto a 60 cm^2 dish and was allowed to grow to confluency. The cells were treated with 1 mM NAC and NACBE for 1 hour in HBSS. The drug solution was aspirated and washed twice with HBSS. The cells were scraped with the aid of methanol (˜1 mL) and collected into 2 mL centrifuge tubes. The cell suspension in methanol was sonicated (for cell lysis) in a water bath for 30 minutes and was centrifuged at 14,000 RPM for 15 minutes. The supernatant was transferred to a HPLC vial and methanol was evaporated under a stream of nitrogen.
# The sample was resuspended in 50 μL of methanol before injecting into the HPLC system. Samples and standard (20 μL) were injected with an autosampler. Separation was conducted by 0.8 mL/min gradient elution with a water/0.10% formic acid and acetonitrile mobile phase on a 250×4.6-mm ([…]) C18 column (Restek, Pinnacle II) maintained at 25° C. The samples were monitored at 205 nm with a UV detector and analyzed with Agilent Chemstation software.
# ARPE-19 cells [8] = assay: JC-1 staining (confocal); conditions: 1 mM pretreatment for 24 hours, then 50 μM HQ for 4 hours
# Description: The cells were imaged on the confocal (Zeiss LSM 800) by excitation with the 488 nm laser and emission imaged at 530 nm (green channel) and 590 nm (red channel).
structure (smiles),measurement,setting,value
CC(=O)N[C@@H](CS)C(N)=O,cellular GSH level (luminescence) compared to untreated cells,ARPE-19 cells [1],did not produce any significant GSH
"CCOC(=O)CNC(=O)[C@H](CS)NC(=O)CC[C@H](N)C(=O)O [GSH-EE, glutathione ethyl ester]",cellular GSH level (luminescence) compared to untreated cells,ARPE-19 cells [1],did not produce any significant GSH
"Oc1ccc(O)cc1 [HQ, hydroquinone]","viability at 16 h, 500 μM",in vitro,~60%
same,non-lethal HQ doses,"ARPE-19 cells [2]; human, 16 h",less than 400 μM
same,mitochondrial depolarization (590 nm/530 nm fluorescence),ARPE-19 cells [3],moderate depolarization
same,level of ATP,"ARPE-19 cells [4]; 500 μM HQ for 3, 6 and 8 hours",the level of ATP decreased
same,amplification of mitochondrial DNA,[5]; 500 uM HQ for 24 hours,drastically reduced the amplification of mitochondrial DNA
"CC(=O)N[C@@H](CS)C(=O)O [NAC, N-acetylcysteine]",concentration needed for 100% cell viability relative to NACBE,ARPE-19 cells [2]; NAC 0.5 mM versus NACBE 0.05 mM,10 ×
same,pretreatment concentration at which 100% cell viability was obtained,"ARPE-19 cells [2]; pretreatment 0.001-1.0 mM for 24 hours, then 500 μM HQ for 16 hours",0.5 mM
same,ZO-1 staining of cell-cell junctions,"ARPE-19 cells [6]; 1 mM for 24 hours, without HQ",proper cell-cell junctions
same,ZO-1 staining of cellular junctions after exposure to HQ,"ARPE-19 cells [6]; 1 mM pretreatment for 24 hours, then 500 μM HQ for 2 hours",diminished or was completely absent
same,compound and metabolite detected within the cells by HPLC,ARPE-19 cells [7],no NAC was detected
same,cellular GSH level (luminescence) compared to untreated cells,ARPE-19 cells [1],did not produce any significant GSH
same,ATP production after HQ insult,"ARPE-19 cells [4]; 1 mM pretreatment, then 500 μM HQ for 3, 6 and 8 hours",some protection
same,protection of mitochondrial DNA amplification against HQ,"[5]; pretreatment for 24 hours (1 mM), then 500 uM HQ for 24 hours",did not show any signs of protection
same,mitochondrial membrane potential after HQ (JC-1 staining),ARPE-19 cells [8],did not help to retain mitochondrial depolarization
"CCOC(=O)[C@H](CS)NC(C)=O [NACEE, N-acetylcysteine ethyl ester]",cellular GSH level (luminescence) compared to untreated cells,ARPE-19 cells [1],produced the highest amounts of GSH
"CCCOC(=O)[C@H](CS)NC(C)=O [NACPE, N-acetylcysteine propyl ester]",cellular GSH level (luminescence) compared to untreated cells,ARPE-19 cells [1],produced the highest amounts of GSH
